# Key:
# LOX IMVI = assay: NCI one-dose screening, melanoma LOX IMVI; type: cell-based, human; conditions: 10 μM
# CCRF-CEM = assay: NCI screening platform one-dose single concentration screening, leukemia CCRF-CEM; type: cell-based, human; conditions: 10 μM
# EKVX = assay: NCI one-dose screening, non-small cell lung cancer EKVX; type: cell-based, human; conditions: 10 μM
# SK-MEL-2 = assay: NCI one-dose screening, melanoma SK-MEL-2; type: cell-based, human; conditions: 10 μM
# HL-60, TB = assay: NCI one-dose screening, leukemia HL-60, TB; type: cell-based, human; conditions: 10 μM
# NCI-H522 = assay: NCI one-dose screening, non-small cell lung cancer NCI-H522; type: cell-based, human; conditions: 10 μM
# OVCAR-3 = assay: NCI one-dose screening, ovarian cancer OVCAR-3; type: cell-based, human; conditions: 10 μM
# 786-O = assay: NCI one-dose screening, renal cancer 786-O; type: cell-based, human; conditions: 10 μM
# M14 = assay: NCI one-dose screening, melanoma M14; type: cell-based, human; conditions: 10 μM
# UACC-62 = assay: NCI one-dose screening, melanoma UACC-62; type: cell-based, human; conditions: 10 μM
# RXF, 393 = assay: NCI one-dose screening, renal cancer RXF, 393; type: cell-based, human; conditions: 10 μM
# UACC-257 = assay: NCI one-dose screening, melanoma UACC-257; type: cell-based, human; conditions: 10 μM
# A549/ATCC = assay: NCI one-dose screening, non-small cell lung cancer A549/ATCC; type: cell-based, human; conditions: 10 μM
# SN12C = assay: NCI one-dose screening, renal cancer SN12C; type: cell-based, human; conditions: 10 μM
# SK-MEL-5 = assay: NCI one-dose screening, melanoma SK-MEL-5; type: cell-based, human; conditions: 10 μM
# MALME-3M = assay: NCI one-dose screening, melanoma MALME-3M; type: cell-based, human; conditions: 10 μM
# NCI-H226 = assay: NCI one-dose screening, non-small cell lung cancer NCI-H226; type: cell-based, human; conditions: 10 μM
# CAKI-1 = assay: NCI one-dose screening, renal cancer CAKI-1; type: cell-based, human; conditions: 10 μM
# OVCAR-4 = assay: NCI one-dose screening, ovarian cancer OVCAR-4; type: cell-based, human; conditions: 10 μM
# TK-10 = assay: NCI one-dose screening, renal cancer TK-10; type: cell-based, human; conditions: 10 μM
# SF-539 = assay: NCI one-dose screening, CNS cancer SF-539; type: cell-based, human; conditions: 10 μM
# HCC-2998 = assay: NCI one-dose screening, colon cancer HCC-2998; type: cell-based, human; conditions: 10 μM
# SR = assay: NCI one-dose screening, leukemia SR; type: cell-based, human; conditions: 10 μM
# IGROV1 = assay: NCI one-dose screening, ovarian cancer IGROV1; type: cell-based, human; conditions: 10 μM
# NCI-H322M = assay: NCI one-dose screening, non-small cell lung cancer NCI-H322M; type: cell-based, human; conditions: 10 μM; Non-small cell lung cancer
# HOP-62 = assay: NCI one-dose screening, non-small cell lung cancer HOP-62; type: cell-based, human; conditions: 10 μM
# K562cell line = assay: NCI one-dose screening, leukemia K562; type: cell-based, human; conditions: 10 μM
# HT29 = assay: NCI one-dose screening, colon cancer HT29; type: cell-based, human; conditions: 10 μM
# ACHN = assay: NCI one-dose screening, renal cancer ACHN; type: cell-based, human; conditions: 10 μM
# NCI-H23 = assay: NCI one-dose screening, non-small cell lung cancer NCI-H23; type: cell-based, human; conditions: 10 μM
# [1] = test system: PC-3 prostate cancer cell line; assay: SRB assay cell viability, PC-3 prostate cancer cell line; type: cell-based, human; conditions: Homo sapiens, PC-3 prostate cancer cell line, Table II prints no unit, μM printed, read-out: SRB assay: 50% inhibition of cancer cell proliferation of sample concentration (IC50) of PC-3 prostate cancer cell line
# U251 = assay: NCI one-dose screening, CNS cancer U251; type: cell-based, human; conditions: 10 μM
# OVCAR-8 = assay: NCI one-dose screening, ovarian cancer OVCAR-8; type: cell-based, human; conditions: 10 μM
# NCl/ADR-RES = assay: NCI one-dose screening, breast cancer NCl/ADR-RES; type: cell-based, human; conditions: 10 μM; listed under Ovarian cancer
# MOLT-4 = assay: NCI one-dose screening, leukemia MOLT-4; type: cell-based, human; conditions: 10 μM
# COLO 205 = assay: NCI one-dose screening, colon cancer COLO 205; type: cell-based, human; conditions: 10 μM
# SF-295 = assay: NCI one-dose screening, CNS cancer SF-295; type: cell-based, human; conditions: 10 μM
# SF-268 = assay: NCI one-dose screening, CNS cancer SF-268; type: cell-based, human; conditions: 10 μM
# SNB-75 = assay: NCI one-dose screening, CNS cancer SNB-75; type: cell-based, human; conditions: 10 μM
# OVCAR-5 = assay: NCI one-dose screening, ovarian cancer OVCAR-5; type: cell-based, human; conditions: 10 μM
# KM12 = assay: NCI one-dose screening, colon cancer KM12; type: cell-based, human; conditions: 10 μM
# HCT-15 = assay: NCI one-dose screening, colon cancer HCT-15; type: cell-based, human; conditions: 10 μM
# HCT-116 = assay: NCI one-dose screening, colon cancer HCT-116; type: cell-based, human; conditions: 10 μM
# SNB-19 = assay: NCI one-dose screening, CNS cancer SNB-19; type: cell-based, human; conditions: 10 μM
# SK-MEL-28 = assay: NCI one-dose screening, melanoma SK-MEL-28; type: cell-based, human; conditions: 10 μM
# NCI-H460 = assay: NCI one-dose screening, non-small cell lung cancer NCI-H460; type: cell-based, human; conditions: 10 μM
# PRMI-8226 cell line = assay: NCI one-dose screening, leukemia PRMI-8226; type: cell-based, human; conditions: 10 μM
smiles,measurement,setting,value
"Cc1ccccc1Nc1cc2c(c3nsnc13)C(=O)c1ccccc1C2=O [C61, 4-(o-tolylamino)anthra[2,1-c][1,2,5] thiadiazol-6,11-dione]",Growth Percent LOX IMVI,LOX IMVI,8.17%
same,Growth Percent CCRF-CEM,CCRF-CEM,17.83%
same,Growth Percent EKVX,EKVX,62.56%
same,Growth Percent SK-MEL-2,SK-MEL-2,32.64%
same,Growth Percent HL-60(TB),"HL-60, TB",1.11%
same,Growth Percent NCI-H522,NCI-H522,12.41%
same,Growth Percent OVCAR-3,OVCAR-3,22.37%
same,Growth Percent 786-0,786-O,63.62%
same,Growth Percent M14,M14,61.89%
same,Growth Percent UACC-62,UACC-62,57.68%
same,Growth Percent RXF 393,"RXF, 393",45.35%
same,Growth Percent UACC-257,UACC-257,33.79%
same,Growth Percent A549/ATCC,A549/ATCC,27.13%
same,Growth Percent SN12C,SN12C,46.94%
same,Growth Percent SK-MEL-5,SK-MEL-5,8.03%
same,Growth Percent MALME-3M,MALME-3M,64.72%
same,Growth Percent NCI-H226,NCI-H226,47.00%
same,Growth Percent CAKI-1,CAKI-1,27.55%
same,Growth Percent OVCAR-4,OVCAR-4,−5.69%
same,Growth Percent TK-10,TK-10,63.75%
same,Growth Percent SF-539,SF-539,47.90%
same,Growth Percent HCC-2998,HCC-2998,57.61%
same,Growth Percent SR,SR,−15.27%
same,Growth Percent IGROV1,IGROV1,25.29%
same,Growth Percent NCI-H322M,NCI-H322M,64.54%
same,Growth Percent HOP-62,HOP-62,40.78%
same,Growth Percent K562,K562cell line,16.97%
same,Growth Percent HT29,HT29,52.64%
same,Growth Percent ACHN,ACHN,38.07%
same,Growth Percent NCI-H23,NCI-H23,37.57%
same,IC50,[1],0.21 µM
same,Growth Percent U251,U251,19.18%
same,Growth Percent OVCAR-8,OVCAR-8,22.87%
same,Growth Percent NCI/ADR-RES,NCl/ADR-RES,28.36%
same,Growth Percent MOLT-4,MOLT-4,−11.92%
same,Growth Percent COLO 205,COLO 205,83.39%
same,Growth Percent SF-295,SF-295,34.71%
same,Growth Percent SF-268,SF-268,39.57%
same,Growth Percent SNB-75,SNB-75,43.18%
same,Growth Percent OVCAR-5,OVCAR-5,79.06%
same,Growth Percent KM12,KM12,40.14%
same,Growth Percent HCT-15,HCT-15,28.74%
same,melting point,,177 to 178 °C
same,Growth Percent HCT-116,HCT-116,24.23%
same,Growth Percent SNB-19,SNB-19,61.89%
same,Growth Percent SK-MEL-28,SK-MEL-28,53.13%
same,Growth Percent NCI-H460,NCI-H460,11.85%
same,Growth Percent RPMI-8226,PRMI-8226 cell line,16.20%

# From patent US8877748B2, “Heterocyclic fused anthraquinone derivatives, manufacturing method and pharmaceutical composition using thereof” (National Defense Medical Center, priority 2012, dated 2014)
